Measured values as given in US7638531B2, “Phenoxypiperidines and analogs thereof useful as histamine H3 antagonists” (Schering Corporation, priority 2005, dated 2009).

Assays:
[1] = system: mice fed a high-fat diet; assay: Diet-induced obesity in mice; format: in vivo; conditions: high-fat diet days 0 to 4, 10 mg/kg by gavage once daily for four days, versus vehicle control
Description: Lean mice (male, approx. 5 weeks of age, purchased from The Jackson Laboratory, Bar Harbor, Me.) were maintained in individual cages at 22° C. on a 12:12 hr light/dark cycle. The “treated” mice (N=12) were administered a Thiazole Derivative (10 mg/kg) by gavage once daily for four consecutive days. Control mice (N=12) were administered vehicle only, once daily for four days. Both control and treated mice were fed a high-fat diet from days 0 to 4 and body weight and food intake was monitored daily. The percent inhibition for weight gain and food intake was calculated by comparing the increase in weight gain and food intake in the treated mice to the increase in weight gain and food intake in the control mice.

[2] = target: T1, recombinant human H3 receptor, expressed in HEK-293 cells (Homo sapiens, UniProt Q9Y5N1); assay: H3-receptor binding assay, recombinant human receptor; conditions: recombinant human receptor in HEK-293 membranes; 3 nM [3H]R-α-methyl histamine or [3H]Nα-methyl histamine, 30° C., 30 min
T1 construct: expressed in transfected cells; host or cells: HEK-293 (human embryonic kidney) cells
Description: (§1) The source of the H3 receptors in this experiment was guinea pig brain. Alternatively, the source of H3 receptors was recombinant human receptor, expressed in HEK-293 (human embryonic kidney) cells.
(§2) All compounds to be tested were dissolved in DMSO and then diluted into the binding buffer (50 mM Tris, pH 7.5) such that the final concentration was 2 μg/ml with 0.1% DMSO. Membranes were then added (400 μg of protein, 5 μg in the case of recombinant human receptor) to the reaction tubes. The reaction was started by the addition of 3 nM [^3H]R-α-methyl histamine (8.8 Ci/mmol) or 3 nM [^3H]N^α-methyl histamine (80 Ci/mmol) and continued under incubation at 30° C. for 30 min. Bound ligand was separated from unbound ligand by filtration, and the amount of radioactive ligand bound to the membranes was quantitated by liquid scintillation spectrometry. All incubations were performed in duplicate and the standard error was always less than 10%. Compounds that inhibited more than 70% of the specific binding of radioactive ligand to the receptor were serially diluted to determine a Ki (nM).

[3] = target: T2, H3 receptors, guinea pig brain (Cavia porcellus, UniProt Q9JI35); assay: H3-receptor binding assay, guinea pig brain; conditions: guinea pig brain membranes; 3 nM [3H]R-α-methyl histamine or [3H]Nα-methyl histamine, 30° C., 30 min
T2 construct: The source of the H3 receptors in this experiment was guinea pig brain; from tissue; host or cells: guinea pig brain membranes
Description: as §1
The animals weighed 400-600 g. The brain tissue was homogenized with a solution of 50 mM Tris, pH 7.5. The final concentration of tissue in the homogenization buffer was 10% w/v. The homogenates were centrifuged at 1,000×g for 10 min. in order to remove clumps of tissue and debris. The resulting supernatants were then centrifuged at 50,000×g for 20 min. in order to sediment the membranes, which were next washed three times in homogenization buffer (50,000×g for 20 min. each). The membranes were frozen and stored at −70° C. until needed.
as §2, with “All incubations were performed in duplicate and the standard error was always less than 10%. Compounds that inhibited more than 70% of the specific binding of radioactive ligand to the receptor were serially diluted to determine a Ki (nM).” left out

T1 sequence (Q9Y5N1 whole entry): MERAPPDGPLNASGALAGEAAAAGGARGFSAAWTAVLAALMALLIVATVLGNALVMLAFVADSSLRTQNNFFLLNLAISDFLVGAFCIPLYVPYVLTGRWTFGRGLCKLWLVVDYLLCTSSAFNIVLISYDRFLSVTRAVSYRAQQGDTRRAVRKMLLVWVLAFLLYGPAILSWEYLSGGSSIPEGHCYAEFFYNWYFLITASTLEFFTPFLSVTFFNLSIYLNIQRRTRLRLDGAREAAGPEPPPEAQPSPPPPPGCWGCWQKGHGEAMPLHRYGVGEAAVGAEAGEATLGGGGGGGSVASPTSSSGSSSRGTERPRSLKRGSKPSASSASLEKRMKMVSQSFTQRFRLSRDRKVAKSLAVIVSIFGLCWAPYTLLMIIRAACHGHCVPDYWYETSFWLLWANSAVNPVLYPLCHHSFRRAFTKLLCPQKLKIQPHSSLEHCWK
T2 sequence (Q9JI35 whole entry): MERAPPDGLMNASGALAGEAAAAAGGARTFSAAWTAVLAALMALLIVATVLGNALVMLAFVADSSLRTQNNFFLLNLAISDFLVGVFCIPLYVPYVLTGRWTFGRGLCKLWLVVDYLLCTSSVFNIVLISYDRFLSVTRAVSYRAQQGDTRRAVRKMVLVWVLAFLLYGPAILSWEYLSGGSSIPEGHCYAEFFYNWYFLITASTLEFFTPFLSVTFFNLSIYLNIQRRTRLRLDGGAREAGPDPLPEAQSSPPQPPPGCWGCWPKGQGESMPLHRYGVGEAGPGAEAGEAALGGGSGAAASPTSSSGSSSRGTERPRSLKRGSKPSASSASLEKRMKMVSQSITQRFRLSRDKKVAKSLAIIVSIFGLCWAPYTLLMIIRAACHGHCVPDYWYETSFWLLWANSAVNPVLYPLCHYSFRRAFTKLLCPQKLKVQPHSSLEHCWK

Structure (SMILES) | Food intake Inhibition (%) [1] | Weight Gain Inhibition (%) [1] | Ki [2] | Ki [3]
Nc1cc(CN2CCC(Oc3ccc(-n4c(-c5ccccn5)nc5cccnc54)cc3)CC2)ccn1 [Compound 4A] | 15.9% | 74.1% |  | 
Nc1cc(CN2CCC(Oc3ccc(-n4c(C(F)(F)C(F)(F)F)nc5cccnc54)cc3)CC2)ccn1 [Compound 36A] | 12.7% | 58.0% |  | 
CN1CCN(c2ccc(OC3CCN(Cc4ccnc(N)c4)CC3)cc2)CC1 [Compound 22A] | 11.2% | 42.4% |  | 
Nc1cc(CN2CCC(Oc3ccc(-n4c(-c5ncccc5F)nc5cccnc54)cc3)CC2)ccn1 [Compound 69A] |  |  | 0.6 nM | 18 nM
